For data set [1], the system named is VCR-induced neuropathy. To be noted: electrophysiology, studies in man; cited from earlier work.
The test system of data set [2] is mouse. In words: Effect of gangliosides on acute Vincristine toxicity (acute lethality, single i.v. dose). Format: in vivo. Conditions: Vincristine 3.0 mg/kg e.v. alone. On the procedure:
The mice were subdivided into groups of not more than 8 in standard cages. Food and water were provided ad lib. The animals were housed in rooms under strictly controlled conditions.
1 mg of Vincristine was diluted to obtain the concentration necessary to inject 0.1 ml/10 g. body weight.
A solution of gangliosides was prepared by addition of sterile distilled water in a quantity sufficient to obtain a final concentration of 200 mg/kg in a volume of 0.2 ml. This dose was administrated to mice weighing about 20g.

Data set [3] deals with melanoma B16. In words: Antitumoral effect of Vincristine with and without CRONASSIAL, melanoma B16. Type of data set: in vivo, mouse. To be noted: B16, host C57B1; VCR 0,5 mg/kg i.p. days 1-4, 7-11. On the procedure:
Female C57 B1 mice weighing 20 g. were used for experiments on melanoma B16.
This tumor was prepared by inoculation in the same way as that used for sarcoma S180.
(§1) A standard vial containing 1 mg of Vincristine was used. It was prepared with a suitable volume of diluting solution to give the final concentration required for injection into 0.1 ml/10 g. of body weight.
(§2) A solution of this substance, which is a mixture of four gangliosides, was prepared by adding a volume of sterile distilled water suffi- cient to give a concentration of 200 mg/kg in a volume of 0.2 ml. This dose is administered to mice weighing approximately 20 g.

In data set [4] the test system is Male mice CD-1 (ICR) BR. In words: Effect of ganglioside treatment on chronic Vincristine toxicity (lethality after sub-chronic pre-treatment or post-treatment). Format: in vivo, mouse. To be noted: for Mortality rate: Table 3; for Mortality rate, No.: Table 4. Here is the method:
(§3) Male mice CD-1 (ICR) BR (Charles River, Italy) weighing 25-30 g were used for the whole experiment. The animals were housed in groups of 10 per cage and fed with standard laboratory chow and tap water ad libitum. The animals were housed at constant room temperature (21°±1° C.) and relative humidity (60%) with controlled cycles of light/dark (light from 8.00 a.m. to 8.00 p.m.).
(§4) Vincristine sulphate (Lilly) was dissolved in saline and injected i.v. in a dose volume of 10 ml/kg, whereas the gangliosides were solubilized in a phosphate buffer (0.01M; pH 7.5) containing 0.8% of NaCl and administered i.m. at a dose volume of 5 ml/kg.
(§5) The ganglioside mixture (or vehicle) was administered i.m. daily for 5 consecutive days at different doses (50, 100 and 200 mg/kg) and Vincristine was injected i.v. 5 hours after the last treatment with gangliosides (or vehicle) in doses of 2.4 and 2.6 mg/kg.
(§6) The ganglioside mixture (or vehicle) was administered i.m. in doses of 200 mg/kg 5 hours before i.v. treatment with Vincristine for 5 consecutive days
(§7) The doses of Vincristine were of 2.2, 2.4 and 2.6 mg/kg.
(§8) The mortality rate was estimated by the number of animals that died within the first 14 days of Vincristine treatment.
(§9) The statistical significance between mortality rates was assessed by means of Fisher's exact probability test.
(§10) The results of the tests are reported in Tables 3 and 4 and graphed in FIG. 1. On the basis of the mortality rate curve after administration of Vincristine, doses between 2 and 3 mg/kg were chosen for the investigation with gangliosides. The first experiment compared the effects of ganglioside treatment before and after Vincristine injection.
(§11) In the case of post-treatment, a single administration of gangliosides was given in order to exclude the possibility that the greater efficacy of pre-treatment with gangliosides in reducing Vincristine toxicity, might only be due to the last ganglioside injection.

Test in data set [5]: as above
To be noted: mouse, in vivo, iv, Table 4, read-out: Mortality rate, %. Type of data set: in vivo, mouse. Here is the method: as §3, §4, §5, §6, §7, §8, §9, §10, §11

In data set [6] the test system is sarcoma S180. In words: Antitumoral effect of Vincristine with and without CRONASSIAL, sarcoma S180. Conditions: S180, host SN; VCR 0,5 mg/kg i.p. days 1-6. Format: in vivo, mouse. On the procedure:
Male Swiss Schneider mice weighing 27 g. were used for experiments on sarcoma S180.
This tumor has been transplanted into the same strain of mouse in this laboratory for over 10 years. The transplant was carried out by s.c.inoculation of 0.1 ml of a tumoral homogenate obtained by finely mincing viable tumoral tissue, passed repeatedly through a 26 gauge needle into a sterile Petri dish. 0.1 ml of Penicillin (20,000 u/ml) and streptomycin (20,000 u/ml) were added to the solution. 5 mg of Neomycin were also added.
as §1, §2

Data set [7] concerns leukemia L1210. Briefly: Antitumoral effect of Vincristine with and without CRONASSIAL, leukemia L1210. Type of data set: in vivo, mouse. On the procedure:
Male BDF1 mice weighing 30 g. were used for experiments on leukemia L1210.
Spleens were removed from the animals 7 days after inoculation of L1210 cells and were then finely minced with isotonic saline 1:100. 0.1 ml of this spleen and leukemia L1210 cell suspension was then injected s.c. into the flank of each BDF1 mouse.
as §1, §2

The subject of data set [8] is 3T3, neuroblastoma, glioma. Conditions: exogenous addition; cited from earlier work.
[9] abbreviates: subchronic vehicle + VCR 2.4 mg/kg i.v.
Where [10] appears, read: subchronic vehicle + VCR 2.6 mg/kg i.v.

Here are results for two compounds from patent publication US5229373A, “Use of exogenous gangliosides as a protective factor against toxicity by antitumor drug vincristine” (Fidia S.p.A., priority 1986, dated 1993).

Read-outs that look alike come from different tables or passages of the source.

Turning to `CC[C@]1(O)C[C@H]2CN(CCc3c([nH]c4ccccc34)[C@@](C(=O)OC)(c3cc4c(cc3OC)N(C=O)[C@H]3[C@@](O)(C(=O)OC)[C@H](OC(C)=O)[C@]5(CC)C=CCN6CC[C@]43[C@@H]65)C2)C1` [Vincristine], the “type of VCR-induced neuropathy” value in data set [1] was “dying-back type”. Moreover, the “No. Survivors at 30 days” value in data set [2] was 2/8. Also, the Mean tumor weight in data set [3] is 1,46 g; in data set [6] it was 0,64 g. Besides, the Mortality rate in data set [4] (vehicle + VCR 2.4 mg/kg i.v.) is 7/10; in data set [4] (vehicle + VCR 2.6 mg/kg i.v.), 5/10. The “Mortality rate, No.” value in data set [4] (setting [9]) is 19/50; in data set [4] (setting [10]), 30/50. Besides, the mortality (commonly the share of the test organisms that died) at 336 h in data set [5] (setting [9]) was found to be 38%; in data set [5] (setting [10]), 60%. In addition, the Mean survival time in data set [7] (L1210, host BDF1, VCR 1,0 mg/kg i.p. days 1-3) is recorded as 7,8 gg. This compound also registered an average survival time in data set [7] (L1210, Vincristine alone) of 7.8 days.
On to II^3 NeuAcGgOse4 Cer [GM1], for which the “cell growth and contact inhibition” value in data set [8] was “inhibits cell growth and induces contact inhibition”.
